Test results taken from patent US11840495B2, “Compositions and methods related to di-substituted bicyclo[2.2.1] heptanamine-containing compounds” (The Broad Institute, Inc., priority 2020, dated 2023).
Where a name gives a salt, the structure may show the parent alone. Read-outs that look alike come from different tables or passages of the source.

Assays:
FS MUC1 = test: Automated fixation/staining imaging assay, FS MUC1 spot cytoplasm (Example 3); format: cell-based; conditions: 48 hour treatment time; for FS MUC1 Spot Cytoplasm Avg Emax: in % (unit assumed)
Source text: (§1) Prepared Renal Life Media by adding the supplements provided in the kit, substituting the FBS provided with Tet system approved FBS, and filtering the media (not including provided kit antibiotics). Thawed P6 vial(s) into T175 flasks 2 weeks prior to screening. Cells have to be passaged at least once after thaw before they can be used for screening. Hyperflasks can be used depending on the cell number needed. One confluent T175 flask should give at least 25 million cells. Cells should not be split beyond 1:2-1:4 and should only be trypsinized 1×/week. Cells must be spun down after each typsinization. Flasks must be confluent at time of plating. Flasks were incubated at 37° C., 5% CO2, 98% humidity. Cells can only be cultured for up to 10 passages before a new vial will need to be thawed.
(§2) • Day 1: Cells are plated. • Day 2: Compounds are transferred into assay plates with Echo (24 hours post-seeding) • Day 3: Begin preparing reagents for fixation and staining. • Day 4: Plates are fixed and stained (48 hour treatment time) on automated system and subsequently imaged on Opera Phenix. • Day 5: Data analysis and reporting is performed. Plate Preparation:
(§3) Calculated cell number needed and media volume needed for the run (MAX 20 plates/run). Cells were seeded into Synthemax-coated 384-well Cell Carrier plates at a density of 12,000 cells/well in 40 ul of Renal Life Media/well. Calculated for an extra 2-3 plate volumes to account for volume needed to fill the Combi cassette lines and left dead volume of cell suspension. (20 ul added with Combi after compound addition for total 60 ul assay volume, due to volume constraints of Echo transfer process). Trypsinized cells with 3 ml/T175 flask of TrypLE™ Express Enzyme 1X. Then spun down cells and resuspend in 10 ml media. Counted the cells using Nexcelom Cellometer K2. Prepared a mixture of 20 ul cell suspension/20 ul Cellometer AOPI Stain (#CS2-0106) and then add 20 ul of the 2 fold diluted mixture onto a Cellometer slide. Counted the cells by using the Dual Stain option and following the prompts. Recorded the live cell density, viability, and current passage number and date in notebook. Used the live cell density in calculating how to prepare the cell seeding suspension. Mixed the cell suspension thoroughly but gently. Once Combi cassette cleaned and cell suspension was made, dispensed 40 ul of cell suspension per well into the Synthemax-coated Cell Carrier assay plates. Immediately after seeding, stored the assay plates in the Liconic Incubator on the enclosed system in the 3100 automation lab, spaced plates out every other slot in stackers to maximize air flow.
(§4) Generated Arxspan Run ID to record compound transfer in CBIP. Spun down compound plates and assay plates 2000 RPM 10 sec. Load assay plates into Echo system incubator. Coordinated plate locations and record RUN ID with automation team member. Ran protocol for 100 nl transfer according to designated plate layout/template. When run was completed, added 20 ul of media/well for all assay plates with Combi in hood in Tissue culture room. Returned plates to the incubator in the enclosed system for 48 hour treatment time.
(§5) Heated up solution (100° C. on stir plate) and dissolved Roche Blocking reagent by stirring. The resulting solution was cloudy. Stored at 4° C. and used within one week or froze aliquots at −20° C. Combi 4: 1° Antibody Cocktail: Prepared the day of experiment. Swirled to mix. […] Prepared solution in Corning 250 ml conical flask and covered with tinfoil to protect from light.
(§6) Combi 5: 2° Antibody Cocktail: Prepared the day of experiment. Swirlrf to mix. […] Prepared solution in Corning 250 ml conical flask and covered with tinfoil to protect from light.
(§7) Removed media using BioTek plate washer. (PEKASP62) Moved plates to Combi. Combi 1. Dispensed 40 μl of 4% PFA (Combi on MEDIUM Speed). Incubated plates 20 minutes. Washed two times on BioTek plate washer. (PEK26X2)
(§8) Moved plates to Combi. Combi 2. […]

MUC1-fs = test: Immunofluorescence imaging of MUC1-fs in P cells (Example 2); format: cell-based; conditions: for EC50: 48 hr incubation, MUC1-fs; for ECMax (%): DMSO = 0, JQ1 (250 nM) = −100% activity
In short: (§9)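 P cells were treated for 48 h with 5-dose (35–0.0035 μM) or 10-dose (16–0.0008 μM) series, in duplicate. Fixed cells were immunostained for MUC1-fs, MUC1-wt, GM130 and Hoechst nuclei. Per-cell cytoplasmic intensity was normalized with DMSO as 0% and JQ1 (250 nM) as −100%; cell number was normalized to DMSO.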

NUCB1 = test: Automated fixation/staining imaging assay, NUCB1 intensity (Example 3); format: cell-based; conditions: 48 hour treatment time; for NUCB1 Intensity Avg Emax: in % (unit assumed)
Source text: as §1, §2, §3, §4, §5, §6, §7, §8

MUC1-wt = test: Immunofluorescence imaging of MUC1-wt in P cells (Example 2); format: cell-based; conditions: for EC50: 48 hr incubation, MUC1-wt; for WT ECMax (%): DMSO = 0, JQ1 (250 nM) = −100% activity
In short: as §9

[1] = Test agent stability on storage; format: physicochemical; conditions: storage 4° C.; refrigerated and room temperature
P cells = test: in vitro cellular potency of TA compounds determined in P cells; format: cell-based
[2] = 48 hr, DMSO = 0, JQ1 = −100% activity, in %

Compound	IC50 (FS MUC1) [nM]	FS MUC1 Spot Cytoplasm Avg Emax (FS MUC1)	EC50 (MUC1-fs; read-out: EC50) [nM]	Emax (MUC1-fs; [2])	EC50 (NUCB1) [nM]	NUCB1 Intensity Avg Emax (NUCB1)	EC50 (MUC1-wt; read-out: WT EC50) [nM]	WT EMax (MUC1-wt; [2])	Stability/expiration date [1]	EC50 (P cells) [nM]	EC50 (MUC1-fs; read-out: EC50(Spot)) [nM]	ECMax (%) (MUC1-fs; 48 hr)	EC50 (MUC1-wt; read-out: WT EC50 (Cytoplasm)) [nM]	WT ECMax (%) (MUC1-wt; 48 hr)
CC1(C)[C@H]2CC[C@H](C2)[C@@]1(C)N (racemic) [Compound 242, rac-2,3,3-trimethylbicyclo[2.2.1]heptan-2-amine hydrochloride]	2430	−67.4	2430	−67.4	4930	−85.46	> 16000	27.7	–	–	–	–	–	–
CC[C@]1(C)[C@H]2CC[C@H](C2)[C@H]1N (single isomer, unassigned) [Compound 202-P1]	–	–	–	–	–	–	–	–	Stable when refrigerated and at room temperature for few hours	26	40	−77.14	4040	~150
CC[C@@]1(C)[C@@H]2CC[C@@H](C2)[C@@H]1N (single isomer, unassigned) [Compound 202-P2]	–	–	–	–	–	–	–	–	Stable when refrigerated and at room temperature for few hours	14	20	−76	> 1800	~175
CC[C@@]1(C)[C@H]2CC[C@H](C2)[C@H]1N (single isomer, unassigned) [Compound 203-P1]	–	–	–	–	–	–	–	–	Stable when refrigerated and at room temperature for few hours	40	50	−76.02	2700	91.48
CC[C@]1(C)[C@@H]2CC[C@@H](C2)[C@@H]1N (single isomer, unassigned) [Compound 203-P2]	–	–	–	–	–	–	–	–	Stable when refrigerated and at room temperature for few hours	46	40	−75	2600	95
C[C@]1(N)C[C@H]2CC[C@@H]1C2 (single isomer, unassigned) [Compound 253]	8580	−52.28	–	–	–	−21.51	–	–	–	–	–	–	–	–
CC(C)[C@@H]1[C@@H]2CC[C@@H](C2)[C@]1(C)N (single isomer, unassigned) [Compound 258]	5870	−67.73	–	–	9770	−89.37	–	–	–	–	–	–	–	–
CC(C)[C@H]1[C@@H]2CC[C@@H](C2)[C@]1(C)N (single isomer, unassigned) [Compound 259]	2940	−59.03	–	–	14600	−53	–	–	–	–	–	–	–	–
